For one data set, the system named is 25 RCC PDX models. The data set is described as follows: RCC PDX in vivo study, all models. The arrangement: species or system mouse.
Data set [1] has as its system A549 wild-type. The data set is described as follows: Colony formation assay. The data set is classed as cell-based, human. To be noted: 1E−05, 2.5E−06, 5E−07 mol/L.
For data set [2] the following is noted: cited from earlier work.
The test system of data set [3] is A549 p53 KO. Kind of data set: Colony formation assay. The data set is classed as cell-based, human. To be noted: isogenic A549 TP53 KO; 1E−05, 2.5E−06, 5E−07 mol/L.
Data set [4] deals with A549 wild-type. The data set is described as follows: Cell-cycle analysis by FACS. The data set is classed as cell-based, human. The conditions noted are these: A549 parental; 24 hours; M8891 1E−06 mol/L, nutlin-3A 3E−06 mol/L. (In general: A flow cytometer gives signals particle by particle.)
For data set [5], the system named is A549 p53 KO. Kind of data set: Cell-cycle analysis by FACS. The data set is classed as cell-based, human. The conditions noted are these: A549 TP53 KO; M8891 1E−06 mol/L, nutlin-3A 3E−06 mol/L.

`CCN(CC)CCNC(=O)c1c(C)[nH]c(/C=C2\C(=O)Nc3ccc(F)cc32)c1C` [Sunitinib]: in the data set on 25 RCC PDX models (across all 25 PDX models), the “integrated survival analysis based on RTV changes (AUC)” value is given as “clear survival benefit”. The “antitumor activity in cohort of 25 RCC PDX models” value in the data set with 25 RCC PDX models (dose and schedule tested in this study) is given as “moderate”.

Take `CO[C@@H]1[C@H](OC(=O)NC(=O)CCl)CC[C@]2(CO2)[C@H]1[C@@]1(C)O[C@@H]1CC=C(C)C` [TNP-470]: in the data set on A549 wild-type [1], the colony formation entry is “blocked”. Further, in data set [2], the elimination entry is “rapid elimination” and the side effects entry is listed as “neurologic side effects”. Further, in the data set with A549 p53 KO [3], the colony formation result was “resistant”.

On to `COc1ccc(C2=N[C@@H](c3ccc(Cl)cc3)[C@@H](c3ccc(Cl)cc3)N2C(=O)N2CCNC(=O)C2)c(OC(C)C)c1` [nutlin-3A], for which the values for the colony formation entry in the data set on A549 wild-type [1] and in the data set on A549 p53 KO [3] were “significantly reduced colony formation” and “resistant”, respectively. The cell-cycle distribution result in the data set on A549 wild-type [4] was “more prominent arrest in G2–M”. The “shift in cell-cycle distribution” value in the data set with A549 p53 KO [5] is given as “not observed”.

Values taken from article PMC10831447 (Molecular Cancer Therapeutics, 2023).
